Reference: publication PMC5943490, “Altered Expression of the Malate-Permeable Anion Channel OsALMT4 Reduces the Growth of Rice Under Low Radiance” (Frontiers in Plant Science, 2018)
One block for each compound: values may come before it.

How the values were obtained:
[1] = biological target: T1, OsALMT4 (Oryza sativa, UniProt Q0JPI1); assay: malate efflux from intact OX5 seedlings, concentration series; conditions: read-out: Ki (half maximum inhibition)
T1 construct: gene Os01g0221600; full-length, constitutively over-expressed in transgenic rice (homozygous line OX5)
T1 sequence (Q0JPI1 1-524): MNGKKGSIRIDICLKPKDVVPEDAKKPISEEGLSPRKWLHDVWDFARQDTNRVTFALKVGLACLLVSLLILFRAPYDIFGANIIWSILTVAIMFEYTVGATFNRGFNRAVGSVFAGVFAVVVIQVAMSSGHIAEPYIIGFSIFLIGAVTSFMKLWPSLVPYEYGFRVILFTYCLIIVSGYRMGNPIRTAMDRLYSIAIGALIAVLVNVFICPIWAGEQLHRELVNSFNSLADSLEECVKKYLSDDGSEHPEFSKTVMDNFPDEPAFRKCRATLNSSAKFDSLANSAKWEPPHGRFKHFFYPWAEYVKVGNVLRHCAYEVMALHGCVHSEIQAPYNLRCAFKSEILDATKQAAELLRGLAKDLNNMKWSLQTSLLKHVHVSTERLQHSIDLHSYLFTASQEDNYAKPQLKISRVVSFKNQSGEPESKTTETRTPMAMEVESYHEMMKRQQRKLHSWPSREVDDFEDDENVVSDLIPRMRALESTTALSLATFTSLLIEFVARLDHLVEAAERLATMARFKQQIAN

[2] = biological target: T1, OsALMT4; assay: malate efflux from intact OX5 and OX5_null seedlings; conditions: pH 5.6; transported anion, stereo not told
[3] = biological target: T1, OsALMT4; assay: malate efflux from intact OX5 seedlings; conditions: read-out: malate efflux, % of control at 100 μM

IC50 [1]: 25 µM
SMILES: O=C(O)c1ccccc1O [SA, salicylic acid]

SMILES: O=C(O)C[C@H](O)C(=O)O [malate]
malate efflux from intact OX5 and OX5_null seedlings [2]: SA treatment effectively inhibited malate efflux via OsALMT4 in the transgenic OX lines

remaining activity at 100 µM [3]: < 20%
SMILES: O=C(O)c1cccnc1Nc1cccc(C(F)(F)F)c1 [niflumate]
